Publication PMC9237828, “Chemically Tuning Resveratrol for the Effective Killing of Gram-Positive Pathogens” (Journal of Natural Products, 2022)
Values after ≈ are worked out from the molar mass of the structure shown. Where two headings read alike, the source gives them in different places.

Tests used:
[1] = test system: S.aureus LMG8224; assay: microbe, parasite or virus in culture; type: cell-based, Staphylococcus aureus
[2] = test system: C. botulinum CECT551; assay: microbe, parasite or virus in culture; type: cell-based
[3] = test system: E. faecium LMG11423; assay: microbe, parasite or virus in culture; type: cell-based
[4] = test system: C. beijerinckii B504; assay: MIC test, anaerobes; type: cell-based
Method: (§1) The resveratrol derivatives were serially diluted in cMHB (BD Difco) in 96-well microplates. Plates were then inoculated with the indicator bacteria at a final concentration of 5 × 10^5 CFU/mL and incubated at 37 °C for 20 h. In the case of the anaerobic bacteria (Clostridium and Clostridioides), the test was performed following the recommendation of CLSI for anaerobes[77] but using RCM medium instead of cMHB. The cultures were cultivated inside an anaerobic chamber at 37 °C for 24 h. All the tests were performed in triplicate.

[5] = test system: C. ihumii AP5; assay: MIC test, anaerobes; type: cell-based; conditions: 24 h, read-out: Minimal Inhibition Concentration (MIC) C. ihumii AP5
Method: as §1

[6] = test system: E. faecium LMG16003; assay: microbe, parasite or virus in culture; type: cell-based
[7] = test system: S.aureus LMG15975; assay: microbe, parasite or virus in culture; type: cell-based, Staphylococcus aureus
[8] = test system: C. difficile CECT531; assay: microbe, parasite or virus in culture; type: cell-based, Clostridioides difficile; conditions: for MIC: Clostridioides difficile, CECT531, 24 h, read-out: Minimal Inhibition Concentration (MIC) C. difficile CECT531
[9] = test system: C. perfringens CECT376; assay: microbe, parasite or virus in culture; type: cell-based; conditions: for MIC: Clostridium perfringens, CECT376, 24 h, read-out: Minimal Inhibition Concentration (MIC) C. perfringens CECT376
[10] = test system: E. faecium LMG16003 and S. aureus LMG82224; assay: Combination with 24 traditional antibiotics, overall outcome; type: cell-based
[11] = test system: B. cereus ATCC14579; assay: microbe, parasite or virus in culture; type: cell-based, Bacillus cereus; conditions: for MIC: Bacillus cereus, ATCC14579, 20 h, read-out: Minimal Inhibition Concentration (MIC) B. cereus ATCC14579
[12] = test system: E. faecalis V583; assay: microbe, parasite or virus in culture; type: cell-based, Enterococcus faecalis; conditions: for MIC: Enterococcus faecalis, V583, 20 h, read-out: Minimal Inhibition Concentration (MIC) E. faecalis V583
[13] = test system: B. cereus ATCC 10987, E. faecalis V583, E. faecium LMG 16003, and S. aureus LMG 8224; type: cell-based; conditions: 2-fold the MIC, 24 h, cMHB
[14] = test system: E. faecalis LMG16216; assay: microbe, parasite or virus in culture; type: cell-based, Enterococcus faecalis
[15] = test system: MRC5 cells
[16] = test system: B. cereus ATCC10987; assay: microbe, parasite or virus in culture; type: cell-based, Bacillus cereus; conditions: for MIC: Bacillus cereus, ATCC10987, 20 h, read-out: Minimal Inhibition Concentration (MIC) B. cereus ATCC10987
[17] = test system: C. tetani CECT4629; assay: microbe, parasite or virus in culture; type: cell-based
[18] = test system: B. cereus ATCC10987; assay: Effect of the compounds on actively growing bacteria (lysis, OD600); type: cell-based, Bacillus cereus
[19] = test system: E. faecalis LMG08222; assay: microbe, parasite or virus in culture; type: cell-based, Enterococcus faecalis
[20] = test system: S.aureus LMG10147; assay: microbe, parasite or virus in culture; type: cell-based, Staphylococcus aureus; conditions: for MIC: Staphylococcus aureus, LMG10147, 20 h, read-out: Minimal Inhibition Concentration (MIC) S.aureus LMG10147
[21] = test system: E. coli LMG8224; assay: Outer membrane permeabilization test (MIC with or without L-11 peptide); conditions: for MIC (μM) L-11 + 4 μM: presence of 4 μM L-11 outer-membrane-perturbing peptide; for MIC: Escherichia coli, LMG8224, read-out: MIC (μM) L-11 + 0 μM
[22] = test system: S. aureus; design: method as in PMID 29906565; conditions: cited from earlier work
[23] = test system: B. cereus ATCC10987; assay: Intracellular ATP level quantification (BacTiter-Glo); conditions: 32 μM of the compounds (100 μM for CCCP), 30, 60, and 120 min, 37 °C
[24] = in vitro; conditions: human
[25] = test system: B. cereus ATTC10987; assay: Membrane integrity assay (propidium iodide uptake); type: cell-based, Bacillus cereus; conditions: 2×, 1×, and 0.5× the MIC
Method: B. cereus ATTC10987 was grown in LB with shaking at 37 °C for 18 h. After that, the cells were centrifuged and washed in 5 mM HEPES buffer (pH 7.4) plus 5 mM glucose (G-HEPES buffer) three times, adjusted to an OD600 of 0.5 in the same buffer plus 10 μg/mL of propidium iodide (Sigma-Aldrich), and incubated for 10 min at 37 °C. This is a nonfluorescent dye impermeable to the bacterial membranes, but, if the membranes are disturbed, the dye can enter by binding the DNA, providing a strong fluorescent signal. […] The experiment was performed in triplicate.

[26] = test system: B. cereus ATCC10987; assay: Membrane potential assay DiSC3(5); conditions: 2×, 1×, and 0.5× the MIC
[27] = test system: B. cereus ATCC10987 respiratory chain; assay: Activity of the respiratory chain (resazurin reduction); type: cell-based, Bacillus cereus; conditions: dose-related, 125 min
Method: The effect of the resveratrol derivatives on the B. cereus ATCC10987 respiratory chain was measured by the reduction of resazurin to the fluorescent resorufin. The bacteria were cultured in LB medium at 37 °C to an OD600 of 1. Then, the cells were washed three times in cMHB and resuspended in this medium at a final OD600 of 0.2. Resazurin at 100 μg/mL was added to the cells that were distributed in a 96-well plate. […] No treated cells and just MHB medium with resazurin were used as negative controls. All the tests were performed in triplicate.

[28] = test system: panel of aerobic and anaerobic Gram-positive bacteria; assay: organism not typed; type: cell-based
[29] = test system: Enterococcus strains; assay: Time killing kinetic and minimal bactericidal concentration, Enterococcus; type: cell-based
[30] = Table 1, 128 to 2 μM, RCM medium, anaerobic, 24 h

Compound: 4′-tert-butyldimethylsilyl resveratrol [compound 17]
- Minimal Inhibition Concentration (MIC) S.aureus LMG8224 [1]: 8 ± 0 µM
- Minimal Inhibition Concentration (MIC) C. botulinum CECT551 [2, 30]: 13.3 ± 2.6 µM
- Minimal Inhibition Concentration (MIC) E. faecium LMG11423 [3]: 8 ± 0 µM
- Minimal Inhibition Concentration (MIC) C. beijerinckii B504 [4, 30]: 10.6 ± 2.6 µM
- MIC ([5]; Table 1, 128 to 2 μM, RCM medium, anaerobic): 16 µM
- Minimal Inhibition Concentration (MIC) E. faecium LMG16003 [6]: 8 ± 0 µM
- Minimal Inhibition Concentration (MIC) S.aureus LMG15975 [7]: 8 ± 0 µM
- Minimal Inhibition Concentration (MIC) C. difficile CECT531 [8]: 21.3 ± 5.3 µM
- Minimal Inhibition Concentration (MIC) C. perfringens CECT376 [9]: 13.3 ± 2.6 µM
- combined effect with traditional antibiotics [10]: an additive effect was mainly observed
- Minimal Inhibition Concentration (MIC) B. cereus ATCC14579 [11]: 4 ± 0 µM
- Minimal Inhibition Concentration (MIC) E. faecalis V583 [12]: 8 ± 0 µM
- bactericidal/bacteriostatic effect [13]: bactericidal
- Minimal Inhibition Concentration (MIC) E. faecalis LMG16216 [14]: 8 ± 0 µM
- IC50 [15]: 15.5 ± 1.3 µM
- Minimal Inhibition Concentration (MIC) B. cereus ATCC10987 [16]: 8 ± 0 µM
- Minimal Inhibition Concentration (MIC) C. tetani CECT4629 [17, 30]: 5.3 ± 1.3 µM
- effect on actively growing cells ([18]; at 2× the MIC): bactericidal
- effect on actively growing cells ([18]; at the MIC concentration): bacteriostatic
- Minimal Inhibition Concentration (MIC) E. faecalis LMG08222 [19]: 6.6 ± 1.3 µM
- Minimal Inhibition Concentration (MIC) S.aureus LMG10147 [20]: 8 ± 0 µM
- MIC (μM) L-11 + 0 μM ([21]; absence of L-11 outer-membrane-perturbing peptide): >128 µM
- MIC (μM) L-11 + 4 μM [21]: 13.3 ± 2.6 µM

Compound: Oc1ccc(/C=C/c2cc(O)cc(O)c2)cc1 [compound 1, Resveratrol]
- concentration 0.5× the MIC at which additive effects with aminoglycosides were obtained [22]: about 560 μM
- intracellular ATP levels [23]: did not statistically affect the ATP levels
- IC50 at 72 h [24]: 56.6 ± 3.2 µM
- membrane permeabilization (propidium iodide uptake) [25]: did not induce any effect on membrane permeability
- membrane potential change (DiSC3(5)) [26]: did not induce any membrane potential change
- effect on the respiratory chain (reduction of resazurin) [27]: No effect

Compound: CCCCOc1cc(/C=C/c2ccc(OS(=O)(=O)O)cc2)cc(OS(=O)(=O)O)c1 [compound 15, 3-butyl-4′,5-disulfate resveratrol]
- antibacterial activity against the Gram-positive panel [28]: active against all Gram-positive bacterial strains examined
- MIC [8]: 64 µM (≈ 28.4 µg/mL)
- IC50 [24]: 24.9 ± 4 µM
- MIC [9]: 26.6 ± 5.3 µM (≈ 11.8 µg/mL)
- combined effect with traditional antibiotics [10]: strong synergistic effects
- MIC [11]: 6.6 ± 1.3 µM (≈ 2.93 µg/mL)
- MIC [12]: 26.6 ± 5.3 µM (≈ 11.8 µg/mL)
- bactericidal/bacteriostatic effect ([29]; Enterococcus strains, 2-fold the MIC, 24 h, minimal bactericidal concentration test): bacteriostatic
- MBC ([29]; Enterococcus, read-out: minimal bactericidal concentration (bacteria grew after the treatment)): > 128 µM
- MIC [16]: 8 µM (≈ 3.56 µg/mL)
- effect on actively growing cells ([18]; at 2× the MIC): bactericidal
- effect on actively growing cells ([18]; at the MIC concentration): bacteriostatic
- MIC [20]: 8 µM (≈ 3.56 µg/mL)
- MIC [21]: > 128 µM

Compound: CC(C)[Si](Oc1cc(O)cc(/C=C/c2ccc(O)cc2)c1)(C(C)C)C(C)C [compound 32]
- MIC ([1]; Staphylococcus aureus, LMG8224, 20 h, read-out: Minimal Inhibition Concentration (MIC) S.aureus LMG8224): 8 µM (≈ 3.08 µg/mL)
- MIC ([2]; Clostridium botulinum, CECT551, 24 h, read-out: Minimal Inhibition Concentration (MIC) C. botulinum CECT551): 8 µM (≈ 3.08 µg/mL)
- MIC ([3]; Enterococcus faecium, LMG11423, 20 h, read-out: Minimal Inhibition Concentration (MIC) E. faecium LMG11423): 4 µM (≈ 1.54 µg/mL)
- MIC ([4]; Clostridium beijerinckii, B504, 24 h, read-out: Minimal Inhibition Concentration (MIC) C. beijerinckii B504): 10.7 ± 2.6 µM (≈ 4.12 µg/mL)
- MIC [5]: 16 µM (≈ 6.15 µg/mL)
- MIC ([6]; Enterococcus faecium, LMG16003, 20 h, read-out: Minimal Inhibition Concentration (MIC) E. faecium LMG16003): 4 µM (≈ 1.54 µg/mL)
- MIC ([7]; Staphylococcus aureus, LMG15975, 20 h, read-out: Minimal Inhibition Concentration (MIC) S.aureus LMG15975): 8 µM (≈ 3.08 µg/mL)
- intracellular ATP levels [23]: reduced dramatically the ATP levels
- MIC [8]: 16 µM (≈ 6.15 µg/mL)
- IC50 [24]: 1.8 ± 0.1 µM
- MIC [9]: 16 µM (≈ 6.15 µg/mL)
- MIC [11]: 8 µM (≈ 3.08 µg/mL)
- MIC [12]: 8 µM (≈ 3.08 µg/mL)
- bactericidal/bacteriostatic effect [13]: bactericidal
- MIC ([14]; Enterococcus faecalis, LMG16216, 20 h, read-out: Minimal Inhibition Concentration (MIC) E. faecalis LMG16216): 4 µM (≈ 1.54 µg/mL)
- MIC [16]: 8 µM (≈ 3.08 µg/mL)
- MIC ([17]; Clostridium tetani, CECT4629, 24 h, read-out: Minimal Inhibition Concentration (MIC) C. tetani CECT4629): 5.3 ± 1.3 µM (≈ 2.04 µg/mL)
- lysis of actively growing cells ([18]; 2×, 1×, and 0.5× the MIC added at mid exponential phase): most effective derivatives lysing the cells
- MIC ([19]; Enterococcus faecalis, LMG08222, 20 h, read-out: Minimal Inhibition Concentration (MIC) E. faecalis LMG08222): 4 µM (≈ 1.54 µg/mL)
- MIC [20]: 8 µM (≈ 3.08 µg/mL)
- MIC [21]: > 128 µM
- MIC (μM) L-11 + 4 μM [21]: 8 ± 0 µM
- effect on the respiratory chain (reduction of resazurin) [27]: comparable to or even higher than that of the proton ionophore decoupler of the electron transport chain CCCP
